Results published in paper PMC6773697, “Antileukemic activity of novel adenosine derivatives” (Scientific Reports, 2019).
pIC50: −log10 of the molar value.

Experiments:
Assay type in all cases: cell-based, human
MOLT-4 cells [1] = test: XTT cytotoxicity assay, MOLT-4; conditions: for pIC50: Homo sapiens, MOLT-4, XTT, 48 h incubation, none in the picture
Procedure: (§1) The cytotoxic activity test with XTT (sodium 3′-[1-(phenylaminocarbonyl)- 3,4-tetrazolium]-bis (4-methoxy-6-nitro) benzene sulfonic acid hydrate) is a colorimetric method for determining the parameters associated with cell viability. The cytotoxicity in HL-60, THP-1, MOLT-4, and HMEC-1 cells was measured by the XTT assay. XTT is reduced to formazan by the mitochondrial respiratory chain oxidoreductase, which is active only in living cells. The formed crystals of formazan are dissolved directly in the medium. The amount of product is proportional to the number of live cells.
(§2) The IC50 parameter was determined by dividing the mean absorbance values of the drug-treated samples by those of control cells and defined as the drug concentration causing a 50% reduction of cell viability relative to the control. It was calculated using the “Ed50v10(1)” computer application. Cells were plated in 96-well plates at a density of 15 × 10^3 cells in 100 μL culture medium. Drugs were then added at a concentration range of 10 nM–10,000 nM to obtain a final volume of the mixture of 150 μL. Some cells were preincubated with an ATR kinase inhibitor (VE-821) for 1 h at 37 °C before adding the tested compounds. In this case drugs were added at a concentration range of 10 nM–300 nM. For the XTT assay, after 48 h of incubation, the plates were centrifuged at 1,500 rpm for 10 min at 4 °C, the culture medium was removed, and the cells were suspended in 100 mm^3 of HBSS (Hank’s Buffered Salt Solution) containing 140 mM NaCl, 5 mM KCl, 0.8 mM MgCl2, 1.8 mM CaCl2, 1 mM Na2HPO4, 10 mM HEPES (N- (2-hydroxyethyl) -piperazine-N′- (2-ethanesulfonic acid), and 1% glucose at pH 7.4. Then, 50 μL of XTT solution (in PBS) was added to a final concentration of […]. In addition, PMS (phenazine methosulphate) - methyl dibenzo-N-methylpyrazine sulphate (0.383 mg/cm^3) was used, which was combined with XTT solution at a ratio of 1:50. After 4 h of incubation with XTT, absorbance was measured at a wavelength λ = 450 nm and reference wavelength λ = 690 nm with a microplate reader (BioTek, Winooski, VT, USA).

MOLT-4 cells [2] = test: Alkaline comet assay, MOLT-4; conditions: MOLT-4, 48 h, 80 nM
Procedure: Single cell gel electrophoresis (comet assay) was used to detect alkali labile sites, single and double DNA strand breaks, and cross-links induced by genotoxic agents. After electrophoresis and gel staining with 4,6-diamidino-2-phenylindole (DAPI), the released DNA was visible under a fluorescence microscope as a characteristic comet tail. The cells were plated on 24-well plates (20,000 cells/mL) and treated with CLA, CLA-FMOR, CLA-FPIP, or CLA-FPIR at the indicated concentrations for 2, 24, and 48 h at 37 °C. Some cells were preincubated with an ATR kinase inhibitor (VE-821) for 1 h at 37 °C before adding the tested compounds. Next, cells were collected into Eppendorf tubes and rinsed with PBS. Then, cells were suspended in 0.75% low melting point (LMP) agarose dissolved in PBS (pH 7.4) and placed on microscope slides precoated with 0.5% normal melting point (NMP) agarose. […] The slides were stored in a wet chamber at 4 °C and analyzed under a fluorescence microscope. Fifty randomly selected cells from each slide were measured using image analysis (Nikon, Japan) attached to a COHU 4910 video camera, which was equipped with a UV-1 filter block consisting of an excitation filter (359 nm) and a barrier filter (461 nm) connected to the image analysis system Lucia-Comet v. […] In the samples preincubated with VE-821, the level of DNA damage associated with the ATR kinase was determined.

[3] = system: intracellular calcium in THP-1 cells; test: Intracellular calcium assay (Fluo-4 NW), THP-1; conditions: THP-1, 2 h incubation
Procedure: Intracellular calcium levels were determined using the fluorescent probe Fluo-4 NW. The cells were plated in 96-well black plates (15 × 10^3 cells/well) and treated with cladribine and the new derivatives. Incubation with drugs was performed for different times (2–48 h). The medium was then removed, and the cells were washed with phosphate buffered saline (PBS)[35],[36]. Finally, a dye loading solution (Fluo-4 NW dye, probenecid, assay buffer—1xHBSS, 20 mM HEPES; 100 μL per well) was processed according to the Fluo-4 NW Calcium Assay Kit protocol (Molecular Probes) and incubated for 30 min in the dark at 37 °C, and then for another 30 min at the room temperature. The measurements were calculated on a fluorescence plate reader for excitation at 494 nm and emission at 516 nm. To avoid errors in the measurement of fluorescence intensity, caused by feasible cell detachment and resulting decrease in the cell number in the samples due to the drug treatment, DNA content was estimated as well.[37] After the measurement of intracellular calcium fluorescence, the probes were centrifuged at 300xg, 10 min. […] Then 100 μl of 5 μM of propidium iodide (PI) was added, the plate was immediately shaken, incubated for 15 min at room temperature in the dark and the fluorescence was read at 350/620 nm with a Fluoroskan Ascent FL microplate reader (Labsystems, Sweden).

THP-1 cells = test: XTT cytotoxicity assay, THP-1; conditions: for pIC50: Homo sapiens, THP-1, XTT, 48 h incubation, none in the picture; for sensitivity of cells to the compound: THP-1, XTT
Procedure: as §1, §2

## OC[C@H]1O[C@@H](n2cnc3c(N=CN4CCOCC4)nc(Cl)nc32)C[C@@H]1O [CLA-FMOR, [6-deamino-6-(N′, N′-3′-oxa-1′, 5′-pentamethyleneformamidine)] cladribine]
MOLT-4 cells [1]
  pIC50: 7.14
MOLT-4 cells [1]; MOLT-4, XTT
  cytotoxic potency compared with CLA: more potent than CLA
MOLT-4 cells [2]
  DNA fragmentation, percentage of the DNA in the comet tail: 27%
[3]
  intracellular calcium ion concentration: highest intracellular calcium ion concentration
THP-1 cells
  pIC50: 7.39
  sensitivity of cells to the compound: highest sensitivity

## OC[C@H]1O[C@@H](n2cnc3c(N=CN4CCCC4)nc(Cl)nc32)C[C@@H]1O [CLA-FPIR, [6-deamino-6-(N′, N′-l′, 4′-tetramethyleneformamidino)] cladribine]
MOLT-4 cells [1]
  pIC50: 6.90
[3]
  intracellular calcium ion concentration: highest intracellular calcium ion concentration
THP-1 cells
  pIC50: 7.44
  sensitivity of cells to the compound: highest sensitivity
